Here are results for 1 compound from paper PMC9369419 (International Journal of Molecular Sciences, 2022).

A value given as a limit tells only on which side of the number the result lay.

Experiment [1] concerns the target T1, GluK2 (Rattus norvegicus, UniProt P42260).
T1 construct: made in house; host or cells: Sf9 insect cells (membranes)
In words: Radioligand binding at recombinant homomeric GluK2 in Sf9 membranes. The conditions noted are these: recombinant rat homomeric receptor, [3H]-kainic acid, mean ± SEM. On the procedure:
(§1) Ligand binding affinities at recombinant rat homomeric GluA2, GluK1−3, and GluK5 were determined as previously detailed. […] The filters were dried at 70 °C for 1 h, and 50 μL/well Microscint 20 (PerkinElmer, Waltham, MA, USA) was added. Radioactivity was detected with a TopCounter (PerkinElmer, Waltham, MA, USA). GluA2 and GluK5 assays were filtered on GF/C type filters using Millipore 12-well filtration manifolds (Merck Life Science, Søborg, Denmark) and washed twice with ice-cold assay buffer. Filters were placed in pony vials (PerkinElmer, Waltham, MA, USA), 3 mL of Ultima Gold scintillation fluid (PerkinElmer, Waltham, MA, USA) was added, and DPM (disintegrations per minute) were determined using a TriCarb 2900 scintillation counter (PerkinElmer, Waltham, MA, USA).
(§2) All competition curves (n ≥ 3 per ligand) were determined in triplicate. Data were analyzed using GraphPad Prism 6 (GraphPad Software, San Diego, CA, USA) to determine ligand affinity (Ki) and Hill coefficient (nH) using the one-site Ki and four-parameter logistics equations, respectively.

Experiment [2] concerns the target T2, GluA2 (Rattus norvegicus, UniProt P19491).
T2 construct: made in house; host or cells: Sf9 insect cells (membranes)
Put plainly: Radioligand binding at recombinant homomeric GluA2 in Sf9 membranes. The conditions noted are these: recombinant rat homomeric receptor, [3H]-(RS)-AMPA, mean ± SEM. On the procedure:
as §1, §2

The target in experiment [3] is T3, human mGluR4 (Homo sapiens, UniProt Q14833).
T3 construct: expressed in transfected cells; host or cells: HEK293A (transient, Lipofectamine 2000)
T3 sequence (Q14833 33-912): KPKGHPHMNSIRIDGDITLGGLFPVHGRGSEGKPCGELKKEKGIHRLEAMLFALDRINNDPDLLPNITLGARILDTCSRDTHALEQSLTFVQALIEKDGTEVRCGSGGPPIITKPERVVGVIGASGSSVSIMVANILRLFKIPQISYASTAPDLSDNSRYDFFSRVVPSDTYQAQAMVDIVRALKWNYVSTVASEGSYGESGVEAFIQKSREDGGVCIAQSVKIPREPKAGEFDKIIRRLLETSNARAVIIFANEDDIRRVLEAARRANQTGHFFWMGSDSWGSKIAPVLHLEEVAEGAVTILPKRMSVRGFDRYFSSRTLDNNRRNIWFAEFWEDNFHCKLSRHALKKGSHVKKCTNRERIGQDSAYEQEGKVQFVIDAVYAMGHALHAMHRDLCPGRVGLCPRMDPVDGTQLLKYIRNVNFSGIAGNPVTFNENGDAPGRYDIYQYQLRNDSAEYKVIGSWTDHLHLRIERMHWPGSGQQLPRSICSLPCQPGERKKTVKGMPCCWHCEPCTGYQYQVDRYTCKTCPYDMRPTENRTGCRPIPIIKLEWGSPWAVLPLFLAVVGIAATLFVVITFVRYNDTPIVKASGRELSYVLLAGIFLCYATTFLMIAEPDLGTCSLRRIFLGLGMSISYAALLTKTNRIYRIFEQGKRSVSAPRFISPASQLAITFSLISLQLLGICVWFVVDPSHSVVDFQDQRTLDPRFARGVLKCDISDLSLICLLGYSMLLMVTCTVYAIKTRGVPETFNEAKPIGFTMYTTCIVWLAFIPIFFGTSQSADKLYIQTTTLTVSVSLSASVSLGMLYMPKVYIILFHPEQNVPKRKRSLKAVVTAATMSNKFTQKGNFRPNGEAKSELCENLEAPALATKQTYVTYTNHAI
Put plainly: mGluR4 functional assay (IP1 accumulation, HEK293A cells). The experiment is classed as cell-based. The following applies: 0.1 mM compound. The source says:
Dulbecco’s modified Eagle medium (DMEM), dialyzed fetal bovine serum (FBS), Opti-MEM, penicillin-streptomycin, Dulbecco’s phosphate-buffered saline (DPBS), Hank’s balanced salt solution (HBSS) and Lipofectamine 2000 were purchased from Thermo Fisher Scientific (Waltham, MA, USA). An IP-One Gq kit was purchased from Cisbio (Codolet, France). Quisqualate and poly-D-lysine (PDL) hydrobromide were purchased from Sigma-Aldrich (St. Louis, MO, USA). Falcon clear, tissue culture-treated 96-well plates were from Corning Inc. (Corning, NY, USA). OptiPlate-384 white, opaque 384-well plates were from PerkinElmer, (Waltham, MA, USA). L-AP4 and LY341495 were purchased from Tocris Bioscience (Bristol, UK). The HEK293A cells were a kind gift from Dr. Asuka Inoue (Tohoku University, Sendai, Japan). Plasmids encoding human mGluR4 and Flag-tagged human mGluR5 were kind gifts from Jesper M. Mathiesen (University of Copenhagen, København, Denmark). […]
Cell culture and IP1 Assay. […] IP1 accumulation was measured on an EnVision 2104 Multilabel Reader using a 340/60 nm excitation filter and 615/8.5 nm (donor) and 665/7.5 nm (acceptor) emission filters. HTRF ratios were calculated as the ratio of acceptor over donor emission (665 nm/615 nm) and converted to IP1 concentrations with an IP1 standard curve according to the instructions from the kit manufacturer.

Experiment [4] has as its target T4, GluK1 (Rattus norvegicus, UniProt P22756).
T4 construct: made in house; host or cells: Sf9 insect cells (membranes)
Put plainly: Radioligand binding at recombinant homomeric GluK1 in Sf9 membranes. The following applies: recombinant rat homomeric receptor, [3H]-(S)-NF608, mean ± SEM. On the procedure:
as §1, §2

T2 sequence (P19491 22-883): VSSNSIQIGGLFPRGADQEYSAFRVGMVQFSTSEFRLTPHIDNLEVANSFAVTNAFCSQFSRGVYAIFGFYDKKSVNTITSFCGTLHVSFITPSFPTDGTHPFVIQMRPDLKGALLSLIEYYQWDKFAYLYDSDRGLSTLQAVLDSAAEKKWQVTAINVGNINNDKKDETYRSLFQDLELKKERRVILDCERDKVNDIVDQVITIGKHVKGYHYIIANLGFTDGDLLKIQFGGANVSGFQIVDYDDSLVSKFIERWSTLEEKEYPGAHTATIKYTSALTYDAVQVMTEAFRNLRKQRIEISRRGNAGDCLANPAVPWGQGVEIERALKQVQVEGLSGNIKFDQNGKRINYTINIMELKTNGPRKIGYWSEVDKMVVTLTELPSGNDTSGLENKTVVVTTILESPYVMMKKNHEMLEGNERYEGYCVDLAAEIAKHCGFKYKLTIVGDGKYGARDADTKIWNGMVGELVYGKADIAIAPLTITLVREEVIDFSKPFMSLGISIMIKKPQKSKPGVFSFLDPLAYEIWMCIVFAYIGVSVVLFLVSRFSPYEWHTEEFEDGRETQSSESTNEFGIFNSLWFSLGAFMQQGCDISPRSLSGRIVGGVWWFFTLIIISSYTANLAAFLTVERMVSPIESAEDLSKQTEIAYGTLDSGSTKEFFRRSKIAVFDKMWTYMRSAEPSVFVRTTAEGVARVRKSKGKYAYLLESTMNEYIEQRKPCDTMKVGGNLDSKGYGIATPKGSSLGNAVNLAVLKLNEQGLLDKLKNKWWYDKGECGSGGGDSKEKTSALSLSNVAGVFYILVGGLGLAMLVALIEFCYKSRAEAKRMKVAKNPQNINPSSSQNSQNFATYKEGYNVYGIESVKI
T1 sequence (P42260 32-908): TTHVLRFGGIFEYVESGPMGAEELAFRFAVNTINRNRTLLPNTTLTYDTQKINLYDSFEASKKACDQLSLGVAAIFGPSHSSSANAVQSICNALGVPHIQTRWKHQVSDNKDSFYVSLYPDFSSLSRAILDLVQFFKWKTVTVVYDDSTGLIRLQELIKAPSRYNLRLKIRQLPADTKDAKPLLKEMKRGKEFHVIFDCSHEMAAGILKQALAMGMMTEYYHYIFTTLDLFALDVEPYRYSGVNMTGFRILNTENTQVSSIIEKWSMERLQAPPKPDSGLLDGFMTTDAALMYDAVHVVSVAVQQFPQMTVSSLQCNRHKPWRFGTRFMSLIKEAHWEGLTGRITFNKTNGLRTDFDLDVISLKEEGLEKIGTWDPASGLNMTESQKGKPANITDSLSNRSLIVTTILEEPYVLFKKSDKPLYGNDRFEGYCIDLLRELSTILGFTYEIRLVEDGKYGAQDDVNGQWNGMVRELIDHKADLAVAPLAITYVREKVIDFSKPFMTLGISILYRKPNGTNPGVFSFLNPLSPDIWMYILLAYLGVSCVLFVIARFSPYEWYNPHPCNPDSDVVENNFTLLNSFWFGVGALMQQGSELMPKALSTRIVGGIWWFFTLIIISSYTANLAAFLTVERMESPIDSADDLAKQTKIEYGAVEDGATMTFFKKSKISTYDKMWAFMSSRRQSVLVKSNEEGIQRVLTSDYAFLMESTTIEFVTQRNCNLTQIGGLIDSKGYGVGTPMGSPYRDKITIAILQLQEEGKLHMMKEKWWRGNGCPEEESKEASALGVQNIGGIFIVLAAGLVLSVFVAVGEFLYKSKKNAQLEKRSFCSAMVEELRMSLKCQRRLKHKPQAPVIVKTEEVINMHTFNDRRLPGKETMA
T4 sequence (P22756 31-949): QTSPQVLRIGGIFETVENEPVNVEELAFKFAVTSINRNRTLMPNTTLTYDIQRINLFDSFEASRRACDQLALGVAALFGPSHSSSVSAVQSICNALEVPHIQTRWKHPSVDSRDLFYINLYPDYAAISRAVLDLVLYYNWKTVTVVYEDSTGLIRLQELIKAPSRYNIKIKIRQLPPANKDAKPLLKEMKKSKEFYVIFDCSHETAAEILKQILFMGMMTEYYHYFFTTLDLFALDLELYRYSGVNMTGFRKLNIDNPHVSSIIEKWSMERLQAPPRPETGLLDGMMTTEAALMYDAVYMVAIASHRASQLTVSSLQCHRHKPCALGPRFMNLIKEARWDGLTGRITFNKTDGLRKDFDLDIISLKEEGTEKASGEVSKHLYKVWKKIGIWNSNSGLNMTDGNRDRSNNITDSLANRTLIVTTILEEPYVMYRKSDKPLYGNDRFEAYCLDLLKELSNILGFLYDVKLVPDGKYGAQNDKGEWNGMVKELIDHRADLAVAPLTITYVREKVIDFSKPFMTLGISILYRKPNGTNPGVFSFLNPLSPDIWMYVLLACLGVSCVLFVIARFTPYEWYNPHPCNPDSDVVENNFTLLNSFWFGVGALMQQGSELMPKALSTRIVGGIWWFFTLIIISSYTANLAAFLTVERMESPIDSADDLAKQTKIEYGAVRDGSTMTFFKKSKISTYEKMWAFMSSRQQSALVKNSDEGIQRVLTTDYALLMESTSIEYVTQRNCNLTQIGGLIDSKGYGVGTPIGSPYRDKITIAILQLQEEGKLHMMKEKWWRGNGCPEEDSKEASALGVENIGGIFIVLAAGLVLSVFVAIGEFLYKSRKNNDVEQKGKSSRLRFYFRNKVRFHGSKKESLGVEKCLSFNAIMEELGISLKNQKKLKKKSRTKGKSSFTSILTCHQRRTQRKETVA

In the case of `O=C(Nn1c(=O)c(=O)[nH]c2cc(C#Cc3cnc4cccnn34)ccc21)c1ccccc1` [Compound 28], the Ki in experiment [1] is above 100 µM; in experiment [2] it was above 100 µM; in experiment [4], around 100 µM. The “agonist or antagonist activity at mGluR4” value in experiment [3] is recorded as “neither agonistic nor antagonistic”.
